Data reported in US20070073056A1, “4-Substituted Pyrazoline Compounds, their Preparation and Use as Medicaments” (LABORATORIOS DEL DR. ESTEVE, S.A., priority 2005, published 2007).
Counter-ions that a name gives are not always drawn.

Experiments:
CB1-receptor [1] = target: CB1-receptor (UniProt P20272); test: binding of the pyrazoline compounds to CB1-receptors (Pharmacological Methods, Part I); set-up: IC50; species or system human or rat; settings: radioligand [3H]-CP55940, read-out: IC50
Procedure: (§1) I. In-vitro Determination of Affinity to CB1/CB2-Receptors
(§2) The in-vitro determination of the affinity of the inventive 4-substituted pyrazoline compounds to CB1/CB2-Rezeptors is carried out as described in the publication of Ruth A. Ross, Heather C. Brockie et al., “Agonist-inverse agonist characterisation at CB1 and CB2 cannabinoid receptors of L-759633, L759656 and AM630”, British Journal of Pharmacology, 126, 665-672, (1999), whereby the transfected human CB1 and CB2 receptors of Receptor Biology, Inc. are used. The radioligand used for both receptors is [^3H]-CP55940. The respective parts of the description is hereby incorporated by reference and forms part of the present disclosure.
(§3) Rat Cerebellum CB1 Binding
(§4) Binding affinity to CB1 receptor was evaluated according to a modification of the method described by Govaerts et al., Eur J Pharmac Sci 23, 233-243 (2004). The respective parts of the description is hereby incorporated by reference and forms part of the present disclosure.
(§5) Briefly, cerebellum from male wistar rats (250-300 g) were carefully dissected on ice and homogenates were prepared with Potter-Helveheim in a cold 50 mM Tris-HCl solution containing 5 mM MgCl2, 1 mM EDTA and 0.25 M sucrose, pH 7.4. The suspension was centrifuged at […] for 5 minutes. The supernatants were collected and centrifuged 50,000×g for 15 minutes. The resulting pellets were then resuspended in Tris-HCl buffer without sucrose, homogenized and incubated for 15 min at 37° C. in an orbital shaker bath and centrifuged again at 50,000×g for 15 min. Pellets were weighted, resuspended in Tris-HCl buffer without sucrose, homogenized with Ultraturrax at 13,500 rpm for 3×5 seconds and alicuoted in 0.9 ml volumes in Eppendorf tubes. Alicuotes were centrifuged at 20,800×g for 5 minutes, supernatants discarded and pellets were frozen at −80° C. until use. Total protein concentration was determined using the Bio-Rad Lowry method based kit. Competitive binding experiments were performed in presence of 1 nM [^3H]-CP 55,940 in siliconized glass tubes containing 100 μg protein/tube resuspended in 1 ml final volume of 50 mM Tris-HCl, 5 mM MgCl2, 1 mM EDTA, 0.5% (w/v) bovine serum albumin, pH 7.4. Compounds were present at various concentrations and the non specific binding was determined in the presence of 10 μM HU-210. After 1 hour incubation at 30° C., the suspension was rapidly filtered through 0.5% PEI pre-treated GF/B fiber filters on a 96-well harvester and washed 3 times with 3 ml ice-cold binding buffer without bovine serum albumin. Radioactivity on filters was measured with Wallac Winspectral 1414 counter by liquid scintillation in 6 ml Ecoscint H (National Diagnostics, U.K.). Assays were made in triplicates.
(§6) Binding data were analyzed by non-linear regression with the software GraphPad Prism Version 3.03.
(§7) The binding of the pyrazoline compounds of general formula I to CB1-receptors was determined according to the method described in the section Pharmacological Methods, Part I.

CB1-receptor [2] = target: CB1-receptor (UniProt P20272); test: as above; set-up: other: 10^−7 M; other: 10^−8 M; species or system human or rat
Procedure: as §1, §2, §3, §4, §5, §6, §7

Compound | IC50 (CB1-receptor [1]) [nM] | Inhibition (CB1-receptor [2]; 10^−7 M) [%] | Inhibition (CB1-receptor [2]; 10^−8 M, in %)
C[C@H]1C(C(=O)N2CCN(C3CCCCC3)CC2)=NN(c2ccc(Cl)cc2Cl)[C@H]1c1ccc(Cl)cc1 (relative stereo) [Example 5, cis-[5-(4-Chloro-phenyl)-1-(2,4-dichloro-phenyl)-4-methyl-4,5-dihydro-1H-pyrazol-3-yl]-(4-cyclohexyl-piperazin-1-yl)-methanone] | 200 | – | –
CC1CCN(NC(=O)C2=NN(c3ccc(Cl)cc3Cl)[C@@H](c3ccc(Cl)cc3)[C@H]2C)CC1 (relative stereo) [Example 9, cis-5-(4-Chloro-phenyl)-1-(2,4-dichloro-phenyl)-4-methyl-4,5-dihydro-1H-pyrazole-3-carboxylic acid (4-methyl-piperidin-1-yl)-amide] | 77.3 | – | –
C[C@H]1C(C(=O)NN2CCc3ccccc32)=NN(c2ccc(Cl)cc2Cl)[C@H]1c1ccc(Cl)cc1 (relative stereo) [Example 15, cis-5-(4-Chloro-phenyl)-1-(2,4-dichloro-phenyl)-4-methyl-4,5-dihydro-1H-pyrazole-3-carboxylic acid (2,3-dihydro-indol-1-yl)-amide] | 100 | – | –
C[C@H]1C(C(=O)NN2CCCCC2)=NN(c2ccc(Cl)cc2Cl)[C@@H]1c1ccc(Br)s1 (relative stereo) [Example 71, trans-5-(5-Bromo-thiophen-2-yl)-1-(2,4-dichloro-phenyl)-4-methyl-4,5-dihydro-1H-pyrazole-3-carboxylic acid piperidin-1-ylamide] | > 1000 | – | –
C[C@H]1C(C(=O)NN2CCCCC2)=NN(c2ccc(Cl)cc2Cl)[C@H]1c1cc(Br)cs1 (relative stereo) [Example 75, cis-5-(4-Bromo-thiophen-2-yl)-1-(2,4-dichloro-phenyl)-4-methyl-4,5-dihydro-1H-pyrazole-3-carboxylic acid piperidin-1-ylamide] | 180 | – | –
C[C@H]1C(C(=O)NN2CC3CCCC3C2)=NN(c2ccc(Cl)cc2Cl)[C@H]1c1ccc(Cl)cc1 (relative stereo) [Example 108, cis-5-(4-Chlorophenyl)-1-(2,4-dichlorophenyl)-4-methyl-4,5-dihydro-1H-pyrazole-3-carboxylic acid (hexahydrocyclopenta[c]pyrrol-2-yl)-amide hydrochloride] | 31.6 | – | –
C[C@@H]1C(C(=O)NN2CCCCCCC2)=NN(c2ccc(Cl)cc2Cl)[C@@H]1c1ccc(Cl)cc1 (relative stereo) [Example 120, cis-N-(azocan-1-yl)-5-(4-chlorophenyl)-1-(2,4-dichlorophenyl)-4-methyl-4,5-dihydro-1H-pyrazole-3-carboxamide] | – | 75.5 | 37
C[C@@H]1C(C(=O)O)=NN(c2ccc(Cl)cc2Cl)[C@H]1c1ccc(Br)cc1 (relative stereo) [Example 200, trans-5-(4-bromophenyl)-1-(2,4-dichlorophenyl)-4-methyl-4,5-dihydro-1H-pyrazole-3-carboxylic acid] | – | −11.2 | 3
C[C@H]1C(C(=O)NN2CC3CCCC3C2)=NN(c2ccc(Cl)cc2Cl)[C@H]1c1ccc(F)cc1.Cl (relative stereo) [Example 233, cis-1-(2,4-dichlorophenyl)-5-(4-fluorophenyl)-N-(hexahydrocyclopenta[c]pyrrol-2(1H)-yl)-4-methyl-4,5-dihydro-1H-pyrazole-3-carboxamide hydrochloride] | – | 43.9 | 27.9
C[C@H]1C(C(=O)NN2CCc3ccccc32)=NN(c2ccc(Cl)cc2Cl)[C@H]1c1ccc(F)cc1 (relative stereo) [Example 235, cis-1-(2,4-dichlorophenyl)-5-(4-fluorophenyl)-N-(indolin-1-yl)-4-methyl-4,5-dihydro-1H-pyrazole-3-carboxamide] | – | 25.9 | 5.4
C[C@@H]1C(C(=O)NN2CCCCC2)=NN(c2ccc(Cl)cc2Cl)[C@H]1c1ccc(O)cc1 (relative stereo) [Example 344, trans-1-(2,4-dichlorophenyl)-5-(4-hydroxyphenyl)-4-methyl-N-(piperidin-1-yl)-4,5-dihydro-1H-pyrazole-3-carboxamide] | – | −23.3 | −27.3
C[C@@H]1C(C(=O)O)=NN(c2ccccc2Cl)[C@@H]1c1ccc(Cl)s1 (relative stereo) [Example 363, cis-1-(2-chlorophenyl)-5-(5-chlorothiophen-2-yl)-4-methyl-4,5-dihydro-1H-pyrazole-3-carboxylic acid] | – | 11.3 | 12.2
C[C@H]1C(C(=O)O)=NN(c2ccc(Cl)cc2Cl)[C@H]1c1ccc(Br)cc1 (relative stereo) [Example 413, cis-5-(4-bromophenyl)-1-(2,4-dichlorophenyl)-4-methyl-4,5-dihydro-1H-pyrazole-3-carboxylic acid] | – | 17.3 | 13.8
C[C@@H]1C(C(=O)NN2CCc3ccccc32)=NN(c2ccc(Cl)cc2Cl)[C@@H]1c1ccc(Br)cc1 (relative stereo) [Example 415, cis-5-(4-bromophenyl)-1-(2,4-dichlorophenyl)-N-(indolin-1-yl)-4-methyl-4,5-dihydro-1H-pyrazole-3-carboxamide] | – | 79.3 | 32.3
C[C@@H]1C(C(=O)NN2CCCCC2)=NN(c2ccc(Cl)cc2Cl)[C@@H]1c1ccc(F)cc1.Cl (relative stereo) [Example 417, cis-1-(2,4-dichlorophenyl)-5-(4-fluorophenyl)-4-methyl-N-(piperidin-1-yl)-4,5-dihydro-1H-pyrazole-3-carboxamide hydrochloride] | – | 38.5 | 14.8
CCOC(=O)C1=NN(c2ccc(Cl)cc2Cl)[C@@H](c2ccccc2)[C@@H]1C (relative stereo) [Example 421, trans-ethyl 1-(2,4-dichlorophenyl)-4-methyl-5-phenyl-4,5-dihydro-1H-pyrazole-3-carboxylate] | – | 31.2 | 38
CC[C@@H]1C(C(=O)NN2CCCCC2)=NN(c2ccc(Cl)cc2Cl)[C@@H]1c1ccc(Br)cc1.Cl (relative stereo) [Example 428, cis-5-(4-bromophenyl)-1-(2,4-dichlorophenyl)-4-ethyl-N-(piperidin-1-yl)-4,5-dihydro-1H-pyrazole-3-carboxamide hydrochloride] | – | 42.6 | 28.4
C[C@@H]1C(C(=O)NN2CCCCCC2)=NN(c2ccc(Cl)cc2Cl)[C@@H]1c1ccc(F)cc1 (stereo in doubt) [Example 414, cis-N-(azepan-1-yl)-1-(2,4-dichlorophenyl)-5-(4-fluorophenyl)-4-methyl-4,5-dihydro-1H-pyrazole-3-carboxamide] | – | 36.2 | 28.7
COc1ccc([C@@H]2[C@@H](C)C(C(=O)O)=NN2c2ccc(Cl)cc2Cl)cc1 [Example 412, (4R,5S)-1-(2,4-dichlorophenyl)-5-(4-methoxyphenyl)-4-methyl-4,5-dihydro-1H-pyrazole-3-carboxylic acid] | – | −15.4 | −11.1
C[C@@H]1C(C(=O)NN2CCCCC2)=NN(c2ccc(Cl)cc2Cl)[C@@H]1c1ccc(Cl)cc1 [Example 420, (+)-cis-5-(4-chlorophenyl)-1-(2,4-dichlorophenyl)-4-methyl-N-(piperidin-1-yl)-4,5-dihydro-1H-pyrazole-3-carboxamide] | – | 30.4 | 2.8
CC1C(C(=O)O)=NN(c2ccc(Cl)cc2Cl)C1c1ccccc1 (centres unmarked) [Example 429, 1-(2,4-dichlorophenyl)-4-methyl-5-phenyl-4,5-dihydro-1H-pyrazole-3-carboxylic acid] | – | −11 | −10.1
cis-1-(2,4-dichlorophenyl)-5-(4-hydroxyphenyl)-4-methyl-N-(piperidin-1-yl)-4,5-dihydro-1H-pyrazole-3-carboxamide [Example 343] | – | −10.1 | −15.8
